Data as given in patent US10376481B2, “Compounds and methods for inhibiting NHE-mediated antiport in the treatment of disorders associated with fluid retention or salt overload and gastrointestinal tract disorders” (ARDELYX, INC, priority 2012, dated 2019).

Key:
human NHE3 [1] = molecular target: T1, human NHE3 (Homo sapiens, UniProt P48764); assay: Cell-based assay of NHE-3 activity (human NHE3 inhibition assay); design: expressed in transfected cells; host or cells: Opossum kidney (OK) cells (ATCC), electroporated; details: OK cells with human NHE-3 gene, BCECF pH recovery, 0-30 μM test compound; read-out: Human NHE3 pIC50 (converted)
T1 sequence (P48764 26-834): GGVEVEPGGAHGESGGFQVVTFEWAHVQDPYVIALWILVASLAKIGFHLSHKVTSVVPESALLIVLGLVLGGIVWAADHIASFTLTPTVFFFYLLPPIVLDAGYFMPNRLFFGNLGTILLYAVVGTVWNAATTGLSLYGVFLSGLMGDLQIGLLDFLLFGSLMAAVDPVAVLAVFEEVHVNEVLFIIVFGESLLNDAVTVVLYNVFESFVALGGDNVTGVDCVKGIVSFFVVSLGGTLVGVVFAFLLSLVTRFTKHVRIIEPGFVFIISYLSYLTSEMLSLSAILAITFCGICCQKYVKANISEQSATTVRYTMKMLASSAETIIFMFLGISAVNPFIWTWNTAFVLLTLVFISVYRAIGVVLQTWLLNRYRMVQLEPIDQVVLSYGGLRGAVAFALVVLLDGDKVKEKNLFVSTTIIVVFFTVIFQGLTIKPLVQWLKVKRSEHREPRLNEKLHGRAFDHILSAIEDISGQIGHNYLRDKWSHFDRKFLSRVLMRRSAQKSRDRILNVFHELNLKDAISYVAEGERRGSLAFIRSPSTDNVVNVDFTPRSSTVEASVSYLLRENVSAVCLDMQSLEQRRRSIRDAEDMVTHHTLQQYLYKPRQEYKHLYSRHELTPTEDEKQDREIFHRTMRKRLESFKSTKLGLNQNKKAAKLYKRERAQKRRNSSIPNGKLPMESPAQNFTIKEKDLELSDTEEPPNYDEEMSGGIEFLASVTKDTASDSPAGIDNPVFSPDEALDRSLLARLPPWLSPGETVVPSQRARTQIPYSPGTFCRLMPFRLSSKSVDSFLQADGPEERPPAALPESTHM
Method in brief: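 Opossum kidney cells electroporated with rat or human NHE-3, loaded with 5 μM BCECF-AM in NH4Cl-HEPES pH 7.4 for 30 min at RT, then acidified 10 min in Na+-free choline HEPES. Na+-dependent pH recovery rates from BCECF fluorescence, averaged over ≥2 replicates, gave pIC50.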

human NHE3 [2] = molecular target: T1, human NHE3; assay: Cell-based assay of NHE-3 activity (persistent inhibition), human; details: PS120 fibroblasts stably expressing human NHE3, 60 min incubation then washout; for IC50: read-out: pIC50 (human Persistence assay) (converted)
Experimental: The ability of compounds to inhibit human and rat NHE-3-mediated Na^+-dependent H^+ antiport after application and washout was measured using a modification of the pH sensitive dye method described above. PS120 fibroblasts stably expressing human NHE3 were obtained from Mark Donowitz (Baltimore, Md.). Opossum kidney (OK) cells were obtained from the ATCC and propagated per their instructions. The rat NHE-3 gene was introduced into OK cells via electroporation, and cells were seeded into 96 well plates and grown overnight. Medium was aspirated from the wells, cells were washed once with NaCl-HEPES buffer (100 mM NaCl, 50 mM HEPES, 10 mM glucose, 5 mM KCl, 2 mM CaCl2, 1 mM MgCl2, pH 7.4), then overlayed with NaCl-HEPES buffer containing 0-30 μM test compound. After a 60 min incubation at room temperature, the test drug containing buffer was aspirated from the cells. Following aspiration, cells were washed once with NaCl-HEPES buffer without drug, then incubated for 30 min at 37° C. with NH4Cl-HEPES buffer (20 mM NH4Cl, 80 mM NaCl, 50 mM HEPES, 5 mM KCl, 2 mM CaCl2, 1 mM MgCl2, pH 7.4) containing 5 μM BCECF-AM. Cells were washed once with Ammonium free, Na^+-free HEPES (100 mM choline, 50 mM HEPES, 10 mM glucose, 5 mM KCl, 2 mM CaCl2, 1 mM MgCl2, pH 7.4) and incubated in the same buffer for 10 minutes at room temperature to lower intracellular pH. NHE-3-mediated recovery of neutral intracellular pH was initiated (10 min after compound washout) by addition of Na-HEPES buffer. […] Changes in intracellular pH were monitored using a FLIPR Tetra® (Molecular Devices, Sunnyvale, Calif.) by excitation at λex 439 to 505 nm, and measuring BCECF fluorescence at λem 538 nm. The initial rate of the fluorescence ratio change was used as a measure of NHE-mediated Na^+/H^+ activity, and reported as the change in fluorescence ratio per minute. Initial rates were plotted as the average 2 or more replicates, and pIC50 values were estimated using GraphPad Prism.

## CN(C)[C@H]1Cc2ccc(F)cc2[C@@H]1Oc1ccc(S(=O)(=O)NCCOCCOCCNC(=O)NCCCCNC(=O)NCCOCCOCCNS(=O)(=O)c2ccc(O[C@H]3c4cc(F)ccc4C[C@@H]3N(C)C)cc2)cc1 [Example 22]
Human NHE3 [1]
  IC50: < 0.1 µM
Human NHE3 [2]
  % inhibition (human Persistence assay): A (NHE3 <40%)
  IC50: > 1 µM

## O=C(NCCCCNC(=O)NCCOCCOCCNS(=O)(=O)c1ccc(O[C@H]2c3cc(F)ccc3C[C@@H]2N2CCCCC2)cc1)NCCOCCOCCNS(=O)(=O)c1ccc(O[C@H]2c3cc(F)ccc3C[C@@H]2N2CCCCC2)cc1 [Example 23]
Human NHE3 [1]
  IC50: < 0.1 µM
Human NHE3 [2]
  % inhibition (human Persistence assay): C (>70%)
  IC50: 0.1 to 1 µM

## O=C(NCCCCNC(=O)NCCOCCOCCNS(=O)(=O)c1ccc(O[C@H]2c3cc(Cl)cc(F)c3C[C@@H]2N2CCCCC2)cc1)NCCOCCOCCNS(=O)(=O)c1ccc(O[C@H]2c3cc(Cl)cc(F)c3C[C@@H]2N2CCCCC2)cc1 [Example 24]
Human NHE3 [1]
  IC50: < 0.1 µM
Human NHE3 [2]
  % inhibition (human Persistence assay): C (>70%)
  IC50: < 0.1 µM

## CN(C)[C@H]1Cc2c(F)cc(Cl)cc2[C@@H]1Oc1ccc(S(=O)(=O)NCCOCCOCCNC(=O)NCCCCNC(=O)NCCOCCOCCNS(=O)(=O)c2ccc(O[C@H]3c4cc(Cl)cc(F)c4C[C@@H]3N(C)C)cc2)cc1 [Example 25]
Human NHE3 [1]
  IC50: < 0.1 µM
Human NHE3 [2]
  % inhibition (human Persistence assay): C (>70%)
  IC50: < 0.1 µM

## O=C(NCCCCNC(=O)NCCOCCOCCNS(=O)(=O)c1ccc(O[C@H]2c3cc(Cl)cc(Cl)c3C[C@@H]2N2CC[C@@H](O)C2)cc1)NCCOCCOCCNS(=O)(=O)c1ccc(O[C@H]2c3cc(Cl)cc(Cl)c3C[C@@H]2N2CC[C@@H](O)C2)cc1 [Example 30]
Human NHE3 [1]
  IC50: < 0.1 µM
Human NHE3 [2]
  % inhibition (human Persistence assay): C (>70%)
  IC50: < 0.1 µM

## CN(C)[C@H]1Cc2c(Cl)cc(Cl)cc2[C@@H]1Oc1ccc(S(=O)(=O)NCCOCCOCCNC(=O)C(C)(C)C(=O)NCCOCCOCCNS(=O)(=O)c2ccc(O[C@H]3c4cc(Cl)cc(Cl)c4C[C@@H]3N(C)C)cc2)cc1 [Example 36]
Human NHE3 [1]
  IC50: < 0.1 µM
Human NHE3 [2]
  % inhibition (human Persistence assay): C (>70%)
  IC50: 0.1 to 1 µM
